Laboratory results as given in patent US5411960A, “Substituted pyrroloanthracenes and -diones” (Bayer Aktiengesellschaft, priority 1993, dated 1995).

Tested on: human T cells (monocyte-free)
Assay: Inhibition of 5-HT-dependent T cell proliferation
Type: cell-based
Settings: inhibition of T cell proliferation stimulated with PWM (1:200) and 5-HT (100 μm), 3H-thymidine incorporation, 7 days, test range 33 μM-0.1 μM
Description: The in vitro activity of the compounds according to the invention results from their capability to inhibit T cell proliferation, which is previously stimulated by serotonin.
Peripheral mononuclear blood cells (PBMC) are obtained from the buffy coat of the blood of healthy subjects. After isolation by means of isolymph gradients (Pharmacia), the PBMC are washed twice and used directly. Purified T cells are obtained by E rosette formation with sheep erythrocytes [cf. Blue, M. -L., J. F. Daley, H. Levine, K. A. Craig and S. F. Schlossmann, 1986, Biosynthesis and surface expression of T8 by peripheral blood T4+ cells in vitro, J. Immunol. 137, 1202]. Monocytes are partially removed by adhesion to tissue culture plates or flasks. PBMC, T cells or purified T cells (depleted in monocytes) at 5×10^5 /ml, 100 µl/well are cultured in RPMI 1640 medium with 10% fetal calf serum (GIBCO) and L-glutamine in 96-well microculture plates (Becton-Dickinson) under a 5% CO2 atmosphere at 37° C. for 7 days. The cultures are treated with 1 μCi of ^3 H-thymidine for 6 h on the 7th day and collected on filter paper, and the incorporated radioactivity is determined by means of liquid scintillation counting.
The test substances are dissolved in 10 mM HCl in order to achieve a final concentration of 1 mM in each case. The compounds are diluted serially 3× with medium in order to obtain a final concentration between 33 μM-0.1 μM. PWM (1:200, pokeweed mitogen) and 5-HT (100 μm, serotonin), which contain the test substances, are added to monocyte-free human T cells. The positive control (maximum proliferation ) is obtained from cultures containing T cells, PWM and 5-HT. The negative control (minimal proliferation) is obtained from cultures containing T cells and PWM without 5-HT. The inhibitory activity of the test substances is expressed as the IC50 in μM. (see also WO 92/04015)

SMILES	IC50
O=C1C2C3c4ccccc4C(c4ccccc43)C2C(=O)N1CCCN1CC2C3C=CC(C4CC34)C2C1 (centres unmarked) [Example 1, 13-[3-(4,6-Etheno-perhydro-cycloprop[f]isoindol-2-yl)propyl]-9,10-dihydro-9,10-[3', 4']-pyrroloanthracene-12,14[11H,15H) -dione]	5 µM
O=C1C2C3c4ccccc4C(c4ccccc43)C2C(=O)N1CCCN1CC2CCN(c3ccccc3)C2C1 (centres unmarked) [Example 2]	5 µM
O=C1C2C3c4ccccc4C(c4ccccc43)C2C(=O)N1CCCN1CC2CC=CC(CO)C2C1 (centres unmarked) [Example 3]	30 µM
O=C1C2C3c4ccccc4C(c4ccccc43)C2C(=O)N1CCCN1CC[Si](c2ccccc2)(c2ccccc2)CC1 (centres unmarked) [Example 4]	20 µM
O=C1C2C3c4ccccc4C(c4ccccc43)C2C(=O)N1CCCN1CC2C3C=CC(C4CCC34)C2C1 (centres unmarked) [Example 5]	4 µM
c1ccc(CN2CCOC3CN(CCCN4CC5C6c7ccccc7C(c7ccccc76)C5C4)CC32)cc1 (centres unmarked) [Example 9]	20 µM
c1ccc(N2CCC3CN(CCCN4CC5C6c7ccccc7C(c7ccccc76)C5C4)CC32)cc1 (centres unmarked) [Example 10]	1 µM
C1=CC2C3CCC3C1C1CN(CCCN3CC4C5c6ccccc6C(c6ccccc65)C4C3)CC21 (centres unmarked) [Example 11]	1 µM
